row,SMILES,melting point
1,CC(C)c1ccc(C(=O)C2=C(O)C(=O)N(c3ccc(Sc4ccc([N+](=O)[O-])cc4)nn3)C2c2ccc(OC(F)(F)F)cc2)cc1 (stereo not given),194 to 209 °C
2,CC(Nc1nnc(-c2ccsc2)c2ccccc12)c1ccccc1 (stereo not given),144 to 146 °C
3,CC(=O)OCCN1CC(c2ccccc2)NC1=O (stereo not given),88 to 90 °C
4,Nc1cccc(-c2ccc(CCN3CCN(C(=O)C4CCCC4)CC3)cc2)n1,185 to 187 °C
5,CCc1n[nH]c(C(N)=O)c1NC(=O)c1cc(S(C)(=O)=O)ccc1OCC(C)C,154 to 162 °C
6,N#Cc1cnc2c(sc3c([N+](=O)[O-])cccc32)c1Nc1cccc(Br)c1,288 to 290 °C
7,C=CCC1(C(C)CC(=O)OCC)C(=O)NC(=O)NC1=O (stereo not given),114 °C
8,CCn1cc(C(=O)O)c(=O)c2cnc(N3CCN(Cc4ccc(N)cc4)CC3)nc21,198 to 201 °C
9,Cc1ccc(O)c2[nH]c(Cc3cccnc3)nc12,264 to 268 °C
10,C[C@H]1Cc2c(Cl)c(Cl)cc3c(=O)c(C(=O)O)cn1c23,268 to 270 °C
11,CC(C)(C)c1nc(-c2ncn3c2COC(=O)c2ccccc2-3)no1,210 to 211 °C
12,O=Cc1ccnc2c1NC(=O)c1cccnc1N2C1CC1,220 to 222 °C
13,CCOC(=O)C1Oc2cc(C=O)c(Cl)c(Cl)c2O1 (stereo not given),81 to 83 °C
14,Cn1cc(S(C)=O)c(=O)c2sc(-c3ccccc3Cl)cc21 (stereo not given),167 to 169 °C
15,COc1ccc(C(=O)Nc2cc(NC(=O)c3cccc(NC(C)=O)c3)ccc2C)cc1OC,187 to 188 °C
16,c1cc(OCC2CCCCC2)ccc1Cc1nnn[nH]1,156 to 158 °C
17,CC(O)(c1ccccc1)c1ccncc1 (stereo not given),141 to 144 °C
18,CC(C)(C)c1ccc2sc3cc(C#N)ccc3c(=O)c2c1,181 to 184 °C
19,Cc1cc(I)cc(CO)c1N,101 to 103 °C
20,CC(=O)OCc1ccc2cc(C(=O)O)ccc2c1,180 to 190 °C
21,Cn1c(C(F)(F)F)cc(=O)n(-c2ccc3snc(C(Br)C#N)c3c2)c1=O (stereo not given),185 to 187 °C
22,Cc1nc2cc(-c3ccccc3)nn2c2c1CCN2C(C)(C)C,244 to 248 °C
23,CCCCCCOC(=O)Nc1ccc2c(c1)NC(=O)C2(C)C,180 to 183 °C
24,COCc1nc(C(=O)OC)c(C(=O)OC)n1Cc1ccc([N+](=O)[O-])cc1,107 to 110 °C
25,C=CCc1c(O)ccc2c1C(CCNC(=O)CC)CN2C=O (stereo not given),173 to 175 °C

row,SMILES,melting point
1,N#CC(=NNCc1c(Cl)cc(C(F)(F)F)cc1Cl)c1ccc(C#N)cc1,92 to 93 °C
2,Cc1cc(-c2nc3cccnn3c2-c2ccnc(NC(=O)NC(C)(C)C)c2)ccc1F,234 to 235 °C
3,CN(C)Cc1ccc(-c2csc(NC(=N)N)n2)o1,> 200 °C
4,O=C(CCl)c1cccn1C(c1ccccc1)c1ccccc1F (stereo not given),86 to 91 °C
5,COc1cc(C=NNC2=NCCc3ccccc32)cc(OC)c1O,232 to 233 °C
6,CCS(=O)(=O)Nc1cc(C2CCCCC2)cc2c1CCCC2c1c[nH]cn1 (stereo not given),207 to 209 °C
7,COc1ccccc1NCN1CCOC1=O,95.5 to 98 °C
8,O=C(Nc1c(F)cc(F)cc1F)N(Cc1ccc2c(c1)Cc1ccccc1-2)C1CCCCC1,162 to 165 °C
9,Cc1ccc(C=NNc2ccc(S(N)(=O)=O)cc2)cc1,216 to 218 °C
10,CC(C)Nc1nc(-n2cc(C(=O)O)c(=O)c3cc(F)c(N4CC(N)C4)c(Cl)c32)c(F)cc1F,220 to 223 °C
11,CS(=O)CCNC(=O)c1cc2cc(S(N)(=O)=O)sc2s1 (stereo not given),242 to 243 °C
12,COC(=O)c1c(Oc2ccccc2N)c2ccccc2n1C,103 to 105 °C
13,Cc1cc2c(cc1Cl)C(c1ccccc1Cl)C(=O)N2 (stereo not given),203 to 209 °C
14,COc1ccccc1N1CCN(C[C@@H](CC2CCCCC2)NC(=O)C2CCCCC2)CC1,121 to 131 °C
15,N#Cc1ccc(C(=O)N2CCc3[nH]c4c(cnc5cc(Cl)ccc54)c3C2)cc1,> 300 °C
16,CC(=O)OC(OC(C)=O)c1ccc([N+](=O)[O-])cc1,124 to 126 °C
17,CCCCCC(=O)c1ncc(S(N)(=O)=O)s1,124 to 125 °C
18,COc1ccc(Cn2c(=O)c3ccccc3n(CCCCCl)c2=O)cc1,123 to 124 °C
19,CCOC(=O)c1c(Cl)nc(CC)n1Cc1ccc2oc(-c3ccccc3NC(=O)OC(C)(C)C)c(Br)c2c1,73 to 74 °C
20,CCCOc1ccc(F)c2c(=O)c(-c3ccc(C(=O)N4CCOCC4)cc3)c[nH]c12,234 to 236 °C
21,CN(C)Cc1[nH]c2ccccc2c1Cn1ccnc1,153 to 156 °C
22,COC(=O)CCc1ccc(OCC(C)NCC(O)c2ccccc2)cc1 (stereo not given),103 to 104 °C
23,COc1ccc(CCCCCCCC(=O)O)cc1,42 to 43 °C
24,C=CCc1ccc2oc(CC)c(C)c2c1O,38 to 40 °C
25,CNC(=O)N(O)Cc1ccoc1,129 to 131 °C

row,SMILES,melting point
1,Nc1nc2c(s1)CCN(CC=Cc1ccc(Cl)cc1)CC2,145 to 150 °C
2,FC(Cc1ccc(Cl)cc1)(Cn1cncn1)Cn1cncn1,161 to 163 °C
3,COC(=O)c1ccc(CCCc2cnc3nc(N)nc(O)c3c2)cc1,> 250 °C
4,CCCCCCCCCCCCCCCCCCOCc1ccc(C(=O)O)cc1OCCCCCCCCCCCCCCCCCC,87 to 88 °C
5,CC(Cc1ccc(OCc2ccncc2)cc1)NCC(O)c1cccc(Cl)c1 (stereo not given),85 to 110 °C
6,COC(=O)c1nc2ccc(CO)cc2cc1C,84.2 °C
7,CC(=O)c1ccc(NC(=O)c2ccc(-c3ccccc3)cc2)cc1,283 to 285 °C
8,CC(C)(C)OC(=O)NC(Cc1ccccc1)C(=O)NC(Cc1ccc(C(F)(F)F)cc1)C(O)c1ccc(F)cc1 (mixture of isomers),230 to 231 °C
9,COc1ccc2[nH]c(-c3ccccc3N)cc2c1,198 to 200 °C
10,Cc1cccc(NC(=O)NCC(=O)N(c2ccccc2)C(C)C(=O)N(C)c2ccccc2)c1 (racemic),214 °C
11,CC1(C)c2cccnc2C(=O)c2ccc(Cl)cc2S1(=O)=O,189 to 191 °C
12,CC(C)(CS(C)(=O)=O)NC(=O)c1c(NC(=O)c2cc(C(F)(F)F)nn2-c2ncccc2Cl)c(Cl)cc2cn[nH]c12,173 to 176 °C
13,CC(C)n1nc(-c2c(-c3ccccc3)nn3ccc(OCC(=O)Nc4ccccc4)cc23)ccc1=O,208 to 209 °C
14,CCn1cc(CN(C(=O)C2CCCc3ccc(C)cc32)c2ccc(C(C)C)cc2)cn1 (stereo not given),110 to 112 °C
15,CC(C)(O)CNC(=O)CC1CN=C(c2cc3cc(Oc4ccc(S(C)(=O)=O)nc4)cc(OC4CCOCC4)c3[nH]2)S1 (stereo not given),195 to 196 °C
16,CNC(=O)[C@H](CO[Si](C)(C)C(C)(C)C)NC(=O)Nc1n[nH]c(=S)s1,213 to 214 °C
17,CC1(C)c2cc(C#N)ccc2OC1N=C=S (stereo not given),52 °C
18,COc1cccc2c1Cc1c(OC)cccc1C2(CCO)CCO,193 to 196 °C
19,O=C(N[C@@H](Cc1ccccc1)[C@@H](O)[C@H](O)[C@H](Cc1ccccc1)NC(=O)c1ccccn1)c1ccccn1,179 to 184 °C
20,O=C(Nc1cccc(-c2ccnc3c(C(=O)c4cccs4)cnn23)c1)c1cnc[nH]1,280 to 282 °C
21,FC(F)(F)c1cc(CO[C@H]2CCCN(Cc3nsc(I)n3)[C@H]2c2ccccc2)cc(C(F)(F)F)c1,98 to 101 °C
22,CC(C)(C)C(=O)Nc1cccc(P(c2ccccc2)c2cccc3ccccc23)n1 (stereo not given),55 °C
23,CSc1nc(-c2cc(C(C)(C)C)c(O)c(C(C)(C)C)c2)cs1,92 to 93 °C
24,CCOC(=O)C1=C(C)Nc2c(C(=O)O)ncn2C1c1cccc([N+](=O)[O-])c1 (stereo not given),222 °C
25,CNC(=O)c1ccc(C=CC(=O)NCC(=O)N(C)c2ccc(Cl)c(CO)c2Cl)cc1,207 to 211 °C

row,SMILES,melting point
1,O=C(Nc1ccccn1)c1c(O)ccc2cc(-c3cccc(O)c3)ccc12,140 °C
2,COc1ccc(/C=C(\C#N)c2ccc(N)cc2)cc1OC1CCCC1,82 to 84 °C
3,CCc1ccc2c(c1)C(C(=O)O)c1ccccc1CO2 (stereo not given),154 to 155 °C
4,CC(C)(C)OC(=O)NC1C(=O)N2C(C(=O)OCc3ccc([N+](=O)[O-])cc3)=C(S)SCC12 (mixture of isomers),170 °C
5,CC(=O)c1ccc(NS(C)(=O)=O)c(Br)c1,124 to 126 °C
6,COC(=O)CCCCCCNC(=O)C(CS)Cc1ccccc1 (stereo not given),68 to 70 °C
7,O=C1c2cc(O)ccc2SCC1Cc1ccccc1 (stereo not given),73 to 77 °C
8,Cc1ncccc1Oc1ccc(NC(=O)N2CCc3c(n(C)c4ccccc34)CC2)cn1,159 to 160 °C
9,C=CS(=O)(=O)c1c(Cl)c(Cl)nn1C,66 to 69 °C
10,Cc1oc(-c2cccc([N+](=O)[O-])c2)nc1CCl,111 to 113 °C
11,COc1cc2c(cc1OC)-c1c([N+](=O)[O-])sc(=N)n1CC2,220 to 221 °C
12,CC1=C(C(=O)O)C(c2cccc([N+](=O)[O-])c2)NC(=N[N+](=O)[O-])N1 (stereo not given),236 to 238 °C
13,CCOC(=O)C(CCc1ccccc1)NC1CSC(c2ccsc2)CN(CC(=O)O)C1=O (stereo not given),165 °C
14,COc1cc(SC2SCC(OC(C)=O)C(OC(C)=O)C2OC(C)=O)cc(OC)c1OC (stereo not given),101 °C
15,Cc1nc(C#CCCc2nc3ccccc3o2)c[nH]1,152 to 154 °C
16,COc1ccccc1N1CCc2c(Cl)nc3c(OC)cccc3c21,99 to 101 °C
17,O=C1CCC2=C(CCc3cccc(Cl)c32)N1,184 °C
18,O=C(NC1CCCCC1)NC1CCN(CCc2c[nH]c3ccccc23)CC1,204 °C
19,CN(C)S(=O)(=O)c1cccc2c1Sc1ccc(O)cc1N2,208 to 210 °C
20,COC1=C(Br)C(=O)O/C1=C\c1ccccc1C(F)(F)F,136 to 138 °C
21,Cn1c(=O)c(C#N)c(N2CCN(C(=O)c3ccco3)CC2)c2cc(Cl)ccc21,228 °C
22,CC(Cc1ccc(OCCCCCCCCCCCO)cc1)NCC(O)c1cccc(C(F)(F)F)c1 (stereo not given),45 to 50 °C
23,COc1ccc([C@H]2Cc3c(cccc3C(F)(F)F)NC(=O)[C@H]2O)cc1 (relative stereo),205 to 208 °C
24,CCOC(=O)C1=C(N)N=C(OCC)C(C(=O)OCC)C1c1ccco1 (stereo not given),110 °C
25,CC/C=C/CNc1cccc(-c2ccnc3c(C(=O)c4cccs4)cnn23)c1,72 to 75 °C
